Measurements as given in article PMC4086859 (Journal of medicinal chemistry, 2014).
Counter-ions that a name gives are not always drawn.

What was measured:
OVCAR-8 = experiment: Cytotoxic activity, OVCAR-8 cells; type: cell-based; conditions: Homo sapiens, OVCAR-8, 96 h, read-out: EC50 OVCAR-8
NCI/ADR-RES = experiment: Cytotoxic activity, NCI/ADR-RES cells; type: cell-based; conditions: Homo sapiens, 96 h, read-out: EC50 NCI/ADR-RES
[1] = target: tubulin (colchicine site) (Bos taurus, UniProt P81947+Q6B856); experiment: Inhibition of [3H]colchicine binding to tubulin; parameters: species or system bovine; conditions: read-out: colchicine binding inhibition (%)
OVCAR-8 cells = experiment: Cell cycle analysis by FACS; type: cell-based, human; conditions: OVCAR-8, 1.0 μM, 24 h, P < 0.05

Chain of tubulin (colchicine site) (P81947 whole entry): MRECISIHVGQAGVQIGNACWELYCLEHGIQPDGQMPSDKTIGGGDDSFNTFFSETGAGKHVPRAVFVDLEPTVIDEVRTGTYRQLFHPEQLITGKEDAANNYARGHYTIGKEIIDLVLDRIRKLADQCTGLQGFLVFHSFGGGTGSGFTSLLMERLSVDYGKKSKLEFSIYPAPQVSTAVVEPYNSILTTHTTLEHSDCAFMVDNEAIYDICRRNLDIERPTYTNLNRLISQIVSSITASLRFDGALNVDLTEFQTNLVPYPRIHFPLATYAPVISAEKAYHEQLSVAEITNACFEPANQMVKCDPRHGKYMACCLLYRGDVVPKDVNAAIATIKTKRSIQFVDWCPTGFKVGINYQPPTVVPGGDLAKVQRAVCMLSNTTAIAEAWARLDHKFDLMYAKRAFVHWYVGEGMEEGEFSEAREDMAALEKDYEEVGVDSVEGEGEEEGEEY
Chain of tubulin (colchicine site) (Q6B856 whole entry): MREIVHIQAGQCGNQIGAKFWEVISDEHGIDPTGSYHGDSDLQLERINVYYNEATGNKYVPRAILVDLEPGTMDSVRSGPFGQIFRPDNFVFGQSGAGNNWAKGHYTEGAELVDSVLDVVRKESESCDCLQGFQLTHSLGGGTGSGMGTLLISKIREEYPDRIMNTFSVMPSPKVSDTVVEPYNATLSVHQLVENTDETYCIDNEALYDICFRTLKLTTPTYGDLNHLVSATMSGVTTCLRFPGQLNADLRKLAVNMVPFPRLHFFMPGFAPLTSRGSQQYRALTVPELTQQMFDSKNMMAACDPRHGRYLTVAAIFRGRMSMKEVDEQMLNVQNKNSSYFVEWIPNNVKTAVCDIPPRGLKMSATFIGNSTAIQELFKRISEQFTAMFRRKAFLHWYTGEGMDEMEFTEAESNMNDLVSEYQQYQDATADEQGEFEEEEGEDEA

Row | SMILES | inhibition at 5 µM [1] [%] | EC50 (OVCAR-8) [nM] | EC50 (NCI/ADR-RES) [nM] | proportion of cells arrested at G2/M compared to control cells (OVCAR-8 cells)
1 | COc1ccc(/C=C\c2cc(OC)c(OC)c(OC)c2)cc1O [CA-4, combretastatin A-4] | – | 18 ± 4 | 13 ± 4 | –
2 | c1ccc(-c2cccc(Nc3ncnc4cc5c(cc34)OCCCO5)c2)cc1 [Compound 3] | 34 ± 1 | – | – | –
3 | Cl.c1cc(Nc2ncnc3cc4c(cc23)OCCO4)cc(-c2cccs2)c1 [Compound 5, (7,8-Dihydro[1,4]dioxino[2,3-g]quinazolin-4-yl)-[3′-(thien-2″-yl)phenyl]amine Hydrochloride] | 75 ± 0.8 | – | – | significantly increased
4 | c1ccc(-c2cccc(Nc3ncnc4cc5c(cc34)OCCO5)c2)nc1 [Compound 6, (7,8-Dihydro[1,4]dioxino[2,3-g]quinazolin-4-yl)-[3′-(pyridin-yl-2″-yl)phenyl]amine Hydrochloride] | 25 ± 4 | – | – | –
5 | c1cc(Nc2ncnc3cc4c(cc23)OCCO4)cc(-c2ccc[nH]2)c1 [Compound 9, (7,8-Dihydro[1,4]dioxino[2,3-g]quinazolin-4-yl)-[3′-(pyrrol-2″-yl)phenyl]amine Hydrochloride] | 33 ± 7 | – | – | –
6 | CC(=O)O[C@H]1C(=O)[C@@]2(C)[C@H]([C@H](OC(=O)c3ccccc3)[C@]3(O)C[C@H](OC(=O)[C@H](O)[C@@H](NC(=O)c4ccccc4)c4ccccc4)C(C)=C1C3(C)C)[C@]1(OC(C)=O)CO[C@@H]1C[C@@H]2O [paclitaxel] | – | 5.5 ± 0.7 | 5000 | –

Further lines, with some results ahead:

Row | inhibition at 5 µM [1] [%] | SMILES | EC50 (OVCAR-8) [nM] | EC50 (NCI/ADR-RES) [nM] | proportion of cells arrested at G2/M compared to control cells (OVCAR-8 cells)
7 | 72 ± 0.4 | c1ccc(-c2cccc(Nc3ncnc4cc5c(cc34)OCO5)c2)cc1 [Compound 1] | – | – | significantly increased
8 | 41 ± 7 | c1ccc(-c2cccc(Nc3ncnc4cc5c(cc34)OCCO5)c2)cc1 [Compound 2] | – | 350 ± 80 | –
